Reference: publication PMC9929232, “On-demand male contraception via acute inhibition of soluble adenylyl cyclase” (Nature Communications, 2023)
“And” between values parts separate entries of the source, which are not always exact repeats. Identical values can stand only once.

What was measured:
[1] = target: T1, purified recombinant human sAC protein (Homo sapiens, UniProt Q96PN6); test: In vitro adenylyl cyclase activity assay (two-column method);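 for cyclase activity (%): 100% equals DMSO vehicle-treated control activity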; type: biochemical; design: cyclase activity: unit not given here; details: for cyclase activity (%): Fig. 1c normalized replicates; for cyclase activity: Fig. 1c replicates
T1 construct: human sACt protein was incubated
T1 sequence (Q96PN6 1-469 limits assumed): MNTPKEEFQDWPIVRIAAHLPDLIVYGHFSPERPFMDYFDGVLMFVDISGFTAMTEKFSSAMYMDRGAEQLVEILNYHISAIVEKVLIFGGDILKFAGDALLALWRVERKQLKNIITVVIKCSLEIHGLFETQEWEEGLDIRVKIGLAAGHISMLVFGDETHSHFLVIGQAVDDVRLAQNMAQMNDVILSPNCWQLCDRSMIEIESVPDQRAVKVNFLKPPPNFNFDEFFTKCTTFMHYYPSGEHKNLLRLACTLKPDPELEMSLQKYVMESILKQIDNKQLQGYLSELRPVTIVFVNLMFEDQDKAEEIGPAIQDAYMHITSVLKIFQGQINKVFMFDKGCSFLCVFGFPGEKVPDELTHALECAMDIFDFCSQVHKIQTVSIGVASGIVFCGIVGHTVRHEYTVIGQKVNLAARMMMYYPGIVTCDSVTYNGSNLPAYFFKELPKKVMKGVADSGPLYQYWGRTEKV
Description: All in vitro adenylyl cyclase activity assays were performed via the “two-column” method measuring the conversion of [α-^32P] ATP into [^32P] cAMP[54], as previously described. Briefly, human sACt protein was incubated in buffer containing 50 mM Tris-HCl, pH 7.5, 4 mM MgCl2, 2 mM CaCl2, 1 mM ATP, 3 mM DTT, 40 mM NaHCO3 in the presence of the indicated concentrations of different sAC inhibitors or vehicle (1% DMSO).

mouse sperm = test: Flagellar beat frequency of tethered mouse sperm; type: cell-based
Description: An inverted dark-field video microscope (IX73; Olympus) with a 10 x objective (mouse sperm) or a 20 x objective (human sperm) (UPLSAPO, NA 0.8; Olympus) was combined with a high-speed camera (ORCA Fusion; Hamamatsu). Dark-field videos were recorded with a frame rate of 200 Hz. The temperature of the heated stage was set to 37 °C (stage top incubator WSKMX; TOKAI HIT). The images were preprocessed with the ImageJ plugin SpermQ Preparator (Gaussian blur with sigma 0.5 px; subtract background method with radius 5 px) and analyzed using the ImageJ plugin SpermQ[57]. The beat frequency was determined from the highest peak in the frequency spectrum of the curvature time course, obtained by Fast Fourier Transform.

human sperm = test: Acrosome reaction assay, human sperm, progesterone-evoked; type: cell-based
Description: Acrosome reaction was induced by incubating mouse sperm with 50 mouse solubilized zonae pellucidae for 15 min at 37 °C. Human sperm were incubated with 10 μM progesterone for 30 min at 37 °C. […] Samples were air-dried on microscope slides and fixed for 30 minutes in 100% ethanol at room temperature (RT). For acrosome staining, mouse and human sperm were incubated for 30 min in the dark with 5 μg/ml PNA-FITC or 5 μg/ml PSA-FITC, respectively, and counterstained with 2 μg/ml DAPI. After curing, slides were analyzed using a Zeiss LSM 880 Laser Scanning Confocal Microscope; images were captured with two photomultiplier and one Gallium Arsenide Phosphide detector using ZEN Imaging software. For each condition, at least 600 cells were analyzed using ImageJ 1.52.

[2] = concentration (uM) -0.52288 [sic]
[3] = concentration (uM) -1.95424 [sic]
[4] = concentration (uM) -2.43136 [sic]
[5] = concentration (uM) -2.90848 [sic]
[6] = concentration (uM) -3.38561 [sic]
[7] = concentration (uM) -3.86274 [sic]
[8] = concentration (uM) -4.33985 [sic]
[9] = concentration (uM) -4.81696 [sic]
[10] = concentration (uM) printed -1.47712

Nc1nc(Cl)cc(-c2nn(C(F)F)cc2Cc2ccccc2OCCN2CCOC[C@@H]2CO)n1 [TDI-11861]
cyclase activity (%) [1, 2]: 0%
cyclase activity (%) ([1]; concentration (uM) -1 [sic]): 1.344% and 1.8728% and 2.004% and 2.905% and 3.587% and 4.384%
cyclase activity (%) [1, 3]: 19.6796% and 15.3927% and 17.558% and 30.5194% and 31.8303% and 33.3011%
cyclase activity (%) [1, 4]: 38.6741% and 36.8021% and 41.7291% and 63.9723% and 46.6554% and 57.8417%
cyclase activity (%) [1, 5]: 59.9199% and 65.2563% and 61.8852% and 88.985% and 69.2179% and 73.6242%
cyclase activity (%) [1, 6]: 101.82% and 89.3095% and 88.0533% and 91.9223% and 87.6768% and 92.6716%
cyclase activity (%) [1, 7]: 102.032% and 91.5857% and 92.0528% and 108.947% and 93.3751% and 103.72%
cyclase activity (%) [1, 8]: 103.469% and 99.6453% and 98.4201% and 105.132% and 92.0891% and 95.6319%
cyclase activity (%) [1, 9]: 100%
cyclase activity (%) [1, 10]: 6.461% and 6.308% and 6.301% and 11.7225% and 11.6858% and 13.5507%
cyclase activity [1, 2]: 2069 and 1544 and 1561.8 and 2385.2 and 2164.1 and 1653.5
cyclase activity ([1]; concentration (uM) -1 [sic]): 2867.6 and 2750.4 and 2889.4 and 3159.9 and 3272.8 and 3037.2
cyclase activity [1, 3]: 13763.6 and 11459.5 and 13193 and 10525 and 12002.6 and 12163.6
cyclase activity [1, 4]: 25051.1 and 25250.8 and 29205 and 19447.2 and 16584.9 and 19908.8
cyclase activity [1, 5]: 37676.4 and 43580.1 and 42557.3 and 26118.3 and 23558.8 and 24889.9
cyclase activity [1, 6]: 62575.6 and 59074.4 and 59892.2 and 26901.7 and 29264.3 and 30901.4
cyclase activity [1, 7]: 62701.3 and 60540.7 and 62541.6 and 31442.4 and 31025.6 and 34388.3
cyclase activity [1, 8]: 63555.2 and 65732.4 and 66759.6 and 30424.8 and 30628.1 and 31835.7
cyclase activity [1, 9]: 61494 and 65960.9 and 67806.2 and 29056.1 and 33073.3 and 33214.3
cyclase activity [1, 10]: 5908.5 and 5607.6 and 5735.6 and 5511.7 and 5776.1 and 5930.2
Beat frequency, Basal (mouse sperm; distal 10 μm of flagellum, 5 μM TDI-10229 or 10 nM TDI-11861, mean ± SEM): 14.8 ± 1.0 Hz
Beat frequency, + HCO3- (mouse sperm; distal 10 μm, 25 mM NaHCO3, 5 μM TDI-10229 or 10 nM TDI-11861, mean ± SEM): 22.7 ± 1.6 Hz
toxicity to sperm (rescue of acrosome response by cAMP/IBMX) (human sperm): not toxic to sperm
Acrosome reacted (%), Prog (human sperm; Fig. 2h replicates, 10 μM progesterone, 5 μM TDI-10229 or 10 nM TDI-11861): 11.2728% and 11.1787% and 11.2041% and 9.266% and 10.4762% and 13.6206%
Acrosome reacted (%), Prog + db-cAMP/IBMX (human sperm; Fig. 2h replicates, 10 μM progesterone, 5 mM db-cAMP/500 μM IBMX, 5 μM TDI-10229 or 10 nM TDI-11861): 28.3207% and 19.1712% and 18.125% and 29.0658% and 24.3412% and 18.4673%
Acrosome reacted (%), basal + db-cAMP/IBMX (human sperm; Fig. 2h replicates, 5 mM db-cAMP/500 μM IBMX, 5 μM TDI-10229 or 10 nM TDI-11861): 16.1667% and 6.667% and 10.5% and 10.6667% and 19.1045% and 11.7728%
Acrosome reacted (%), basal (human sperm; Fig. 2h replicates, 180 min capacitating media, 5 μM TDI-10229 or 10 nM TDI-11861): 12.5473% and 10% and 15.2336% and 15.1667% and 10.3704% and 13.6209%
